According to patent US7015190B1, “Method for enhancing long-term memory in a subject and uses thereof” (The Trustees of Columbia University in the City of New York, priority 1996, dated 2006):
Numbered stars: 1 amine (or outer) side, 2 acyl side, 3 side chain; on linkers, the order of the positions; unused ones are H or OH. Bridge positions count the residues as written; N and C are the ends. Square brackets hold non-standard residues; d marks the D form. Peptide text beside a SMILES is read from it. I, II: the chains in the order shown. Actinocin(9to1) = Cc1c2oc3c(C)ccc(C(=O)[*:1])c3nc-2c(C(=O)[*:2])c(N)c1=O; NMeV = CN[C@H](C(=O)O)C(C)C; Sar = CNCC(=O)O

Columns and labels:
[1] = test system: Aplysia sensory-motor neuron cocultures; assay: Short- and long-term synaptic facilitation (EPSP amplitude in motor neuron L7) in sensory-motor neuron cocultures; type: cell-based
Procedure: Aplysia sensory neurons from the pleural ganglia of adult animals (80–100 g) were cocultured with the motor neuron L7 from juvenile animals (0.5–4 g). After 4–5 days in culture, the strength of the synaptic connections between the sensory and motor cell was measured electrophysiologically, as previously described (Montarolo et al. 1986, Alberini et al., 1994). The motor neuron was impaled with a glass microelectrode filled with 2.5M KCl (10 MΩ (resistance) and its membrane potential was held at 30 mV below its resting value. The EPSP was evoked by extracellular stimulation of the sensory neuron and the data were stored on a 4 channel tape recorder.
Two protocols were used to induce synaptic facilitation in Aplysia cocultures. In the first, after testing the initial EPSP amplitude, 10 μM 5-HT was applied for 5 min (single pulse). […] The amount of facilitation was calculated as the percentage change in EPSP amplitude recorded before and at the different time points after the single 5-HT application. In the other group of experiments, long-term facilitation was evoked by five exposures to 10 μM 5-HT for 5 min each, at 20 min intervals (5 pulses). The facilitation was calculated as the percentage change in EPSP amplitude 24 hr after the five pulses of 5-HT. The antisera, adjusted to the osmolarity of Aplysia neurons (Alberini et al., 1994), were pressure injected into the sensory neurons 1 hr before 5-HT treatment. Where indicated, anisomycin (10 μM) or actinomycin D (50 μg/ml) was added to the cocultures 1 hr before the 5-HT pulse and was present continuously during the 5-HT treatment. All data are presented as mean percentage change ±SEM in the EPSP amplitude measured after treatment, as compared with its initial pretreatment amplitude. A one way analysis of variance and Newman Keuls multiple range test were used to determine the significance of the EPSP changes.

[2] = test system: Aplysia sensory-motor neuron cocultures; assay: Number of fluorescent sensory neuron varicosities contacting the motor neuron; type: cell-based; settings: 24 hr after one pulse of 5-HT; antiserum injected 1 hr before training
Procedure: Individual sensory neuron were cocultivated with a single motor cell. Glass micropipettes were filled with a 6% sterile-filtered solution of the fluorescent dye 5(6)-carboxyfluorescein (chromatographically purified; Molecular Probes) in 0.44 M KOH (pH 7.0, resistance 50-90 M. The dye was injected into the sensory neurons immediately after measuring the initial EPSP amplitude by 0.4–0.6 nA hyperpolarizing current pulses (500 ms duration at 1 Hz) for 4–6 min, phase contrast and fluorescence images of the same view areas were taken both before and 24 hr after treatment as previously described (Glanzman et al., 1990; Bailey et al., 1992).
Varicosities were identified according to criteria previously established for sensory neurons in vivo (Bailey et al., 1979; Bailey and Chen, 1983, 1988), and in vitro (Glanzman et al., 1990; Bailey et al., 1992) and included all slightly elongated spheres of approximately 2–3 μm or more in diameter.

[3] = test system: ApCREB-2 mRNA; assay: Steady state level of ApCREB-2 mRNA after exposure to agents; parameters: species or system Aplysia; settings: following exposure to the agent
Procedure: RNA was isolated from cultures of approximately 200 Aplysia sensory neurons that had been exposed to none, one, or five pulses of 5-HT (10 μM) as indicated. As a control, one half of the RNA was processed omitting reverse transcriptase from the reaction (—RT).
(FIG. 3B) Northern blot analysis of RNA isolated from CNS of Aplysia exposed to 5-HT in vivo. CNSs were dissected from anesthetized animals after exposing them in vivo to 5-HT (50 μM) for the time indicated above each lane. Eight μg of total RNA from each timepoint was separated in a 1% agarose gel, blotted and consecutively hybridized with probes specific for ApCREB-2, ApCREB-1, ApC/EBP, and ribosomal protein S4 transcripts.
Cultures of approximately 200 Aplysia sensory neurons, established by the dissociation of the pleural sensory cluster in a single dish, were exposed to 10 μM 5-HT for 5 min once or five times separated by 20 min. After washing with ASW, cells were lysed by 100 μl of the guanidium thiocyanate solution and the RNA was isolated. For RT-PCR, the isolated RNA was treated with RNAse free DNAse (Boehringer), reextracted as above and processed using RT-PCR kit (Boehringer). The sequence of the primers used were […]

[4] = test system: ATF4; assay: Amount of ATF4 during neuronal differentiation of PC12 cells; type: cell-based, rat; settings: PC12 cells exposed during differentiation
From the text: The above may be tested in a cellular model of neuronal differentiation, specifically the rat pheochromocytoma cells PC12. The cell line is widely used as a model for neuronal differentiation and also for apoptosis, which is programmed neuronal cell death. PC12 cells are undifferentiated in culture and can be differentiated in vitro by exposing them to nerve growth factor (NGF) and cAMP analogs. Withdrawal of these compounds from the cell culture conditions leads to programmed cell death.
It has been investigated whether ATF4 plays a role in the neuronal differentiation of PC12 cells. […] In addition, overexpression of ATF4 in PC12 cells by transfecting expression constructs with constitutive CMV promoter and ATF4 cDNA prevents the PC12 cells from undergoing neuronal differentiation. […] It is important to also study the role of ATF4 in apoptosis. Since both differentiation and cell death in PC12 cell culture involve similar signal transduction pathways, it is reasonable that ATF4 may be involved in this process as well.

[5] = test system: CRE-mediated transcription (5xCRE-VIP-lacZ reporter); assay: 5xCRE-VIP-lacZ reporter, transient cotransfection of F9 cells; type: cell-based, mouse
Procedure: (FIG. 5B) Transient transfections of F9 cells using a 5xCRE-VIP-lacZ reporter plasmid. The indicated expression constructs were cotransfected with 5xCRE-VIP-lacZ reporter as in (A), except that relative (-galactosidase activity was calculated relative to 5xCRE-VIP-lacZ reporter and normalized to the luciferase activity of cotransfected pRSV-luc. ApCREB-2 and ApCREB-1 are activators of 5xCRE-VIP-lacZ reporter, but become mutual repressors when coexpressed.
(§1) Undifferentiated mouse F9 cells were transfected using Lipofectamine (BRL). The β-galactosidase and luciferase activities were quantitated by chemiluminescence (Galacton Plus, Tropix, and a Luciferase assay kit, Promega) in a Turner 20e luminometer.

[6] = test system: CRE-mediated transcription (pGL3-CRE reporter); assay: pGL3-CRE luciferase reporter, transient cotransfection of F9 cells; type: cell-based, mouse
Procedure: (FIG. 5A) Mouse F9 cells were transiently cotransfected with 1 μg of pGL3-CRE reporter plasmid along with 1 μg of each of the indicated expression plasmids: ApCREB-2=pRcRSV-ApCREB-2, ApCREB-1=pRcRSV-ApCREB-1, PKA=pRcRSV-PKA. All transfections were adjusted to 4 μg total DNA with pRcRSV vector DNA.
as §1

[7] = test system: UASg-lacZ gene; assay: GAL4 DNA binding domain activation assay in yeast; type: cell-based, S. cerevisiae; settings: fused to the GAL4 DNA binding domain, reporter UASg-lacZ
Procedure: The Aplysia CNS cDNA library was synthesized in pGAD10 using random hexamers and the BRL cDNA synthesis kit. Two libraries constructed from size fractionated cDNAs with average inserts >2 kb (5×10^6 independent clones each) were used in the two-hybrid screening as described previously (Fields and Song., 1989, Durfee et al., 1993, Ausubel et al., 1994). The transcriptional activation properties of ApCREB-2 and its interaction with other proteins in the two-hybrid system was analyzed using the full length ApCREB-2 and its deletion mutants subcloned in pAS1 and pACT2 vectors. The transcriptional activity of ApCREB-2/GAL4 DNA binding domain fusions was determined as decribed (Ma and Ptashne, 1987; Durfee et al., 1993). To analyze the protein interactions, ApCREB-2, ApC/EBP, rat CREB, c-fos and deletion mutants of these proteins in pAS1 and pACT2 were cotransformed into S. cerevisiae Y190, and the expressed β-galactosidase quantified as above.

[8] = 2 hr after one pulse of 5-HT paired with ApCREB-2 antiserum injection, inhibitor present during 5-HT
[9] = 24 hr after one pulse of 5-HT paired with ApCREB-2 antiserum injection, inhibitor present during 5-HT
[10] = expression plasmid alone, with PKA
[11] = expression plasmid alone, without PKA

NCCc1c[nH]c2ccc(O)cc12 [5-HT, serotonin]
percent change in EPSP amplitude ([1]; 10 min after one pulse of 5-HT): 13.6% | percent change in EPSP amplitude ([1]; 30 min after one pulse of 5-HT, sera injected 1 hr before): 2.83% | percent change in EPSP amplitude ([1]; 2 hr after one pulse of 5-HT, sera injected 1 hr before): −1% | facilitation of the synaptic potential ([1]; massed training: 25 minutes of continuous exposure to 5-HT): +39% | duration of short-term facilitation ([1]; single pulse of 5-HT, no injection): about 10 min | percent change in the number of sensory neuron varicosities [2]: −10% | level of ApCREB-2 mRNA [3]: not affected

CNc1ccc2oc(C[C@H]3O[C@@]4(CC[C@H]3C)O[C@H]([C@H](C)C(=O)c3ccc[nH]3)[C@H](C)C[C@H]4C)nc2c1C(=O)O [A23187]
level of ApCREB-2 mRNA [3]: does not change

CC(C)Cn1c(=O)n(C)c(=O)c2[nH]cnc21 [IBMX]
level of ApCREB-2 mRNA [3]: does not change

Nc1ncnc2c1ncn2[C@@H]1O[C@@H]2CO[P@@](O)(=S)O[C@H]2[C@H]1O [Rp-cAMPS]
level of ApCREB-2 mRNA [3]: does not change

Nc1ncnc2c1ncn2[C@@H]1O[C@@H]2COP(O)(=S)O[C@H]2[C@H]1O (some centres unmarked) [Sp-cAMPS]
level of ApCREB-2 mRNA [3]: does not change

Cc1c2oc3c(C)ccc(C(=O)N[C@@H]4C(=O)N[C@H](C(C)C)C(=O)N5CCC[C@H]5C(=O)N(C)CC(=O)N(C)[C@@H](C(C)C)C(=O)O[C@@H]4C)c3nc-2c(C(=O)N[C@@H]2C(=O)N[C@H](C(C)C)C(=O)N3CCC[C@H]3C(=O)N(C)CC(=O)N(C)[C@@H](C(C)C)C(=O)O[C@@H]2C)c(N)c1=O [actinomycin D] (I: T[dV]P[Sar][NMeV] / II: T[dV]P[Sar][NMeV]; ester I:1-I:C, II:1-II:C; linker I:N-II:N via Actinocin(9to1))
percent change in EPSP amplitude [1, 8]: +10.12% | percent change in EPSP amplitude [1, 9]: 7.87%

COc1ccc(C[C@H]2NC[C@H](O)[C@H]2OC(C)=O)cc1 [anisomycin]
percent change in EPSP amplitude [1, 8]: +19.17% | percent change in EPSP amplitude [1, 9]: +3.67% | level of ApCREB-2 mRNA [3]: does not change

C=C1[C@@H](O)[C@@H]2O[C@]3(CC[C@H](/C=C/[C@@H](C)[C@@H]4CC(C)=C[C@@]5(O[C@H](C[C@@](C)(O)C(=O)O)CC[C@H]5O)O4)O3)CC[C@H]2O[C@@H]1[C@@H](O)C[C@H](C)[C@H]1O[C@@]2(CCCCO2)CC[C@H]1C [okadaic acid]
level of ApCREB-2 mRNA [3]: does not change

NGF: nerve growth factor
amount of ATF4 [4]: dramatically reduced

rat CREB-1: wild type rat CREB expressed from pRcRSV-CREB341
relative activation [5, 10]: 68.82±7.3 | relative activation [5, 11]: 7.65±0.65

B1: ApCREB-2: Aplysia bZIP transcription factor, 378 amino acids (SEQ ID NO 1), expressed from pRcRSV-ApCREB-2 (protein)
chain: MELDLWSEDFQLAREWGLEMPVVQTDGQFGDLKSTSRHGGDESLSLQPQGATLKLEPFEEDVLGAEWMESSDLGSFLDALGDNHERLHPFESNLLEFTSLITPDDSTVSKDILSSTLQFPTQPVNIPLYASHGAEDFSAETEFENHLSPPDSPEQVAPVINLEPVELTASHMTVISPDGLLGGMELASESLTFTELDFVNFNDSAVGSIGGAEELLGSPLSVDDVESTISFSGPSSPETSQSSIIESSPELYKVISTSSIDASKRFSPYSRSSKSKQSVKTSDAKAPRKTRTPAQPVPEHVIMEHLDKKDRKKLQNKNAAIRYRMKKKGEAQGIKGEEQELEELNTKLKTKVDDLQREIKYMKNLMEDVCKAKGIQLKM
relative activation ([6]; cotransfected with ApCREB-1, absence of PKA catalytic subunit): 0.96±0.15 | relative activation ([6]; cotransfected with ApCREB-1, presence of PKA catalytic subunit): 1.64±0.20 | relative activation ([5]; cotransfected with ApCREB-1, absence of PKA): 1.84±0.25 | relative activation ([5]; cotransfected with ApCREB-1, presence of PKA): 4.12±0.53 | relative activation ([5]; cotransfected with rat CREB-1, with PKA): 5.15±0.62 | relative activation ([5]; cotransfected with rat CREB-1, without PKA): 2.27±0.3 | relative activation [5, 10]: 43.12±5.1 | relative activation [5, 11]: 2.46±0.2 | relative activity as compared to wild type GAL4 [7]: 82%
